Experiments:
5-HT2C receptors [1] = biological target: T1, 5-HT2C receptors (Sus scrofa, UniProt K7GSR7); assay: biochemical; format: binding, pig
T1 construct: pig cerebral plexus; from tissue; host or cells: pig cerebral plexus (own knowledge: choroid plexus)
T1 sequence (K7GSR7 1-457): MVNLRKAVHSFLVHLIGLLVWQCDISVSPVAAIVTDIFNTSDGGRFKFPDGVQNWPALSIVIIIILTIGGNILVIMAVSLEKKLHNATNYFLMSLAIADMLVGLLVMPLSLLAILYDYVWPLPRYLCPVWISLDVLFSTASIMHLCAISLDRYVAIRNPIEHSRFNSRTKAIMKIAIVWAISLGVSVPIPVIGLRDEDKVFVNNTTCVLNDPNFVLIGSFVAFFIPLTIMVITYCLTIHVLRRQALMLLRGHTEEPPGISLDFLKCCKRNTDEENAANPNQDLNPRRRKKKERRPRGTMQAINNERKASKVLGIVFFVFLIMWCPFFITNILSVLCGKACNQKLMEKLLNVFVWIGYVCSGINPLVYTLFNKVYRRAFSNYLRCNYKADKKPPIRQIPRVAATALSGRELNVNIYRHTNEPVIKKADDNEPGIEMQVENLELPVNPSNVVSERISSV
Description: (§1) Measurement of the in vitro affinity for the 5-HT2C and 5-HT2A receptors
(§2) The procedures described for the studies of the binding to the 5-HT2A and 5-HT2C receptors are exactly those described by H. Canton et al. (Eur. J. Pharmacol., 191, 93, 1990) and M. J. Millan et al. (J. Pharmacol. Exp. Ther., 262, 451-463, 1992). For 5-HT2A : rat frontal cortex/[^3 H]-ketanserin (1.0 nM). For 5-HT2C : pig […] plexus/[^3 H]-mesulergine (1.0 nM). The 50% inhibitory doses (ID50) are determined by regression analysis and the pKi values are calculated as follows: [formula] [L]=concentration of the Kd-Kd=dissociation constant Results

5-HT2A receptors [2] = biological target: T2, 5-HT2A receptors (Rattus norvegicus, UniProt P14842); assay: In vitro affinity for the 5-HT2A receptors, rat frontal cortex/[3H]-ketanserin (1.0 nM); format: binding
T2 construct: rat frontal cortex; from tissue; host or cells: rat frontal cortex
Description: as §1, §2

5-HT2C receptors [3] = settings: literature; cited from earlier work
patients = settings: clinical results in patients, literature; cited from earlier work
5-HT2A receptors [4] = settings: literature; cited from earlier work

T2 sequence (P14842 whole entry): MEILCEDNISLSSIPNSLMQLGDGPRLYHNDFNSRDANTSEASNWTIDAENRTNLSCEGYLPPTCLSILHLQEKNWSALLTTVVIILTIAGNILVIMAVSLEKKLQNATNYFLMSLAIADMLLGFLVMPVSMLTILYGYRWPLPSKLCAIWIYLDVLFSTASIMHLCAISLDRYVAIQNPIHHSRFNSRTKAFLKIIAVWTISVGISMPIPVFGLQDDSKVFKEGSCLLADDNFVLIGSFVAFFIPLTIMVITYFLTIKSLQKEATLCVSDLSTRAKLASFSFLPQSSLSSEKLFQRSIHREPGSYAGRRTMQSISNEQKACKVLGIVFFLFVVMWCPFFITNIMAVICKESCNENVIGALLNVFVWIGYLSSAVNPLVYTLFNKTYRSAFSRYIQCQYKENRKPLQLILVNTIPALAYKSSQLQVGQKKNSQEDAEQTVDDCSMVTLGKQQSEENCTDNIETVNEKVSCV

Row | Structure (SMILES) | affinity for the 5-HT2C receptors (5-HT2C receptors [1]) | Ki (5-HT2C receptors [1]; 5-HT2C Ki (nM), pig cerebral plexus, [3H]-mesulergine 1.0 nM, average of two to four determinations) [nM] | Ki (5-HT2C receptors [1]; affinity for the 5-HT2C receptors, of the order of) [nM] | affinity for the 5-HT2A sites/receptors (5-HT2A receptors [2]) | Ki (5-HT2A receptors [2]; rat frontal cortex, [3H]-ketanserin 1.0 nM, average of two to four determinations) [nM] | action at 5-HT2C receptors (5-HT2C receptors [3]) | anxiogenic properties and exacerbation of psychiatric states (patients) | action at 5-HT2A receptors (5-HT2A receptors [4])
1 | Cn1ccc2cc(NC(=O)Nc3cccnc3)ccc21 [SB 200,646, reference compound] | modest affinity | 204 | ~200 | weak affinity | 1320 | selective 5-HT2C antagonist |  | 
2 | Clc1cccc(N2CCNCC2)c1 [mCPP] |  |  |  |  |  | 5-HT2C agonist | pronounced anxiogenic properties and which exacerbates depressive, aggressive and psychotic states in patients | 5-HT2A antagonist
3 | COc1cccc([C@H](O)C2CCN(CCc3ccc(F)cc3)CC2)c1OC [MDL 100,907, reference compound] |  |  |  | very strong affinity |  |  |  | selective 5-HT2A antagonist

From patent US5723484A, “Benzopyran compounds as 5-HT2C receptor antagonists” (Adir et Compagnie, priority 1994, dated 1998)
